Tests used:
human melanocytes [1] = test: Dendricity (morphology) of cultured human melanocytes; format: cell-based
Experimental: In certain instances, phase contrast micrographs were taken using an inverted microscope after the cultures were washed once with phosphate buffered saline.
(§1) A first experimental series was performed which utilized human melanocytes combined with the preferred DAG, 1-oleoyl-2-acetyl-glycerol, selected for its efficiency of intercalating into melanocyte membranes. Neonatal foreskins obtained within two hours of elective circumcision were the source of human melanocytes. The epidermis was separated from the dermis after overnight incubation in 0.25% trypsin. Melanocytes were established in primary culture according to the procedure of Gilchrest et al. [J. Invest. Dermatol. 83:370-376 (1984)]. The preferred DAG was combined with human melanocytes in complete melanocyte medium and incubated together for a period of 6 days at 37°C.
(§2) A second experimental series was conducted in which the cultured human melanocytes were first pretreated with tetradecanoyl phorbol-13-acetate (hereinafter "TPA") at a concentration of 100 nM. Initially, the human melanocytes were obtained and grown as previously described. Subsequently, the cultured human melanocytes were combined with 100 nM of TPA in melanocyte medium and incubated at 37°C for 24 hours. The DAG was then added and the culture incubated again for 6 days. The melanin content of the cells was then evaluated in accordance with the procedure as previously described herein.

human melanocytes [2] = test: Melanocyte bioassay: melanin content of cultured human melanocytes; format: cell-based; settings: for melanization / melanin content per human melanocyte (Fig. 3): DAG added after pretreatment with 100 nM TPA for 24 hours, then 6 days
Experimental: Melanocytes were seeded at 2 x 10^4 cells per 35 mm dish and combined with KPGM supplemented with 2% FBS and 100 ug/ml of BHE, now designated as complete melanocyte medium. After 24 hours incubation at 37 C, the grown melanocyte cultures, in duplicate or triplicate, received one of the following: free complete melanocyte medium; or supplemented whole KDCM. Each melanocyte culture was then incubated for 6-7 days at 37 C. Subsequently, each melanocyte culture was harvested and the cell number per dish empirically determined. Each melanocyte culture was washed with a 0.4 mM EDTA in PBS; treated with 1 ml of a mixture containing 0.13% trypsin and 0.2 mM EDTA; then incubated approximately 10 minutes at 37 C; followed by addition of 1 ml of PBS. Subsequently, a 0.5 ml aliquot of each resulting suspension was diluted to 10 ml total volume using isotonic saline and processed using a particle counter (Model ZM, Colter Science). To determine melanin content, the remaining suspension was centrifuged for 5 minutes in a microcentrifuge; the supernatant discarded; and the resulting cell pellet dissolved in 0.1 ml of a 1 M NaOH which was subsequently diluted with 0.4 ml of water. Melanin concentration was calculated by determination of optical density at 475 nanometers; and values extrapolated by comparison with a standard curve of determinations for synthetic melanin, a measurement of melanogenesis which correlates extremely well with 14C-DOPA incorporation and with tyrosinase activity [[…] and […]. Cell. Physiol. 133:88-94 (1987)]. Melanin values were expressed as total melanin per culture; or as melanin content per cell; or as percent of untreated controls. […] Neonatal foreskins obtained within two hours of elective circumcision were the source of human melanocytes. The epidermis was separated from the dermis after overnight incubation in 0.25% trypsin. Melanocytes were established in primary culture according to the procedure of […] et al. [J. Invest. Dermatol. 83:370-376 (1984)]. The preferred DAG was combined with human melanocytes in complete melanocyte medium and incubated together for a period of 6 days at 37°C. […] At an optimal concentration of 100 »M, this DAG produced an average of a 4 fold increase in cellular melanin content per cell over the untreated control. […] Initially, the human melanocytes were obtained and grown as previously described. Subsequently, the cultured human melanocytes were combined with 100 nM of TPA in melanocyte medium and incubated at 37°C for 24 hours. The DAG was then added and the culture incubated again for 6 days. The melanin content of the cells was then evaluated in accordance with the procedure as previously described herein. The results are graphically illustrated by Figs. 2 and 3 respectively.

S91 melanoma cells [3] = test: Proliferation of S91 melanoma cells in culture; format: cell-based, murine; settings: DMEM with 2% FBS, 37°C, 7 days
Experimental: (§3) Melanocytes were seeded at 2 x 10⁴ cells per 35 mm dish and combined with KPGM supplemented with 2% FBS and 100 ug/ml of BHE, now designated as complete melanocyte medium. After 24 hours incubation at 37 C, the grown melanocyte cultures, in duplicate or triplicate, received one of the following: free complete melanocyte medium; or supplemented whole KDCM. Each melanocyte culture was then incubated for 6-7 days at 37 C. Subsequently, each melanocyte culture was harvested and the cell number per dish empirically determined. Each melanocyte culture was washed with a 0.4 mM EDTA in PBS; treated with 1 ml of a mixture containing 0.13% trypsin and 0.2 mM EDTA; then incubated approximately 10 minutes at 37 C; followed by addition of 1 ml of PBS. Subsequently, a 0.5 ml aliquot of each resulting suspension was diluted to 10 ml total volume using isotonic saline and processed using a particle counter (Model ZM, Colter Science).
(§4) This experimental series was performed to evaluate the effect of a DAG on melanocytes derived from animal sources, rather than humans. In this experimental series, murine S91 melanoma cells were grown and maintained in culture using conventional techniques [Friedmann and Gilchrest, J. Cell. Physiol. 133:88-94 (1987)]. […]

S91 melanoma cells [4] = test: Melanin content of S91 melanoma cells in culture; format: cell-based, murine; settings: DMEM with 2% FBS, 37°C, 7 days
Experimental: To determine melanin content, the remaining suspension was centrifuged for 5 minutes in a microcentrifuge; the supernatant discarded; and the resulting cell pellet dissolved in 0.1 ml of a 1 M NaOH which was subsequently diluted with 0.4 ml of water. Melanin concentration was calculated by determination of optical density at 475 nanometers; and values extrapolated by comparison with a standard curve of determinations for synthetic melanin, a measurement of melanogenesis which correlates extremely well with ¹⁴C-DOPA incorporation and with tyrosinase activity [Friedmann and Gilchrest, J. Cell. Physiol. 133:88-94 (1987)]. Melanin values were expressed as total melanin per culture; or as melanin content per cell; or as percent of untreated controls.
as §4, with “(1987)]. The grown S91 melanoma cells were then combined with 100 »M of the preferred DAG, 1-oleoyl-2-acetyl-glycerol; or with 100 »M of 3-isobutyl-1-methylxanthine (IBMX). Each chemical agent was combined with the S91 melanoma cells in Dulbecco's […] Eagle's Medium containing 2% FBS at 37°C for 7 days.” for “(1987)].”

human melanocytes [5] = test: Melanocyte bioassay: cell number / proliferation of cultured human melanocytes; format: cell-based
Experimental: as §3, §1, §2

[6] = DAG added after pretreatment with 100 nM TPA for 24 hours, then 6 days
[7] = agent alone (DAG 6 days; TPA 100 nM pretreatment)

Compound	induction of dendricity (human melanocytes [1]; [6])	dendricity of human melanocytes (human melanocytes [1]; DAG alone, 6 days at 37°C)	melanization / melanin content per human melanocyte (Fig. 3) (human melanocytes [2]; listed as DAG)	melanization / melanin content per human melanocyte (Fig. 3) (human melanocytes [2]; listed as diacylglycerol)	fold induction at 100 µM (human melanocytes [2]; Homo sapiens, 144 h, optimal concentration of 100 »M, 6 days at 37°C in complete melanocyte medium, read-out: increase in cellular melanin content per cell over the untreated control)	melanin content (Figs. 1a and 1b) (human melanocytes [2]; concentration levels 25 - 200 »M, 6 days at 37°C)	melanization (human melanocytes [2]; diacylglycerol alone, second experimental series, 6 days)	proliferation of S91 melanoma cells (Fig. 4) (S91 melanoma cells [3]; concentrations ranging from 1-200 uM)	melanin production in S91 melanoma cells in comparison to controls (Fig. 5) (S91 melanoma cells [4]; DAG)	melanocyte proliferation or growth (Figs. 1a and 1b) (human melanocytes [5]; 25 - 200 »M, 6 days at 37°C)	human melanocyte proliferation (Fig. 2) (human melanocytes [5]; [6])	human melanocyte proliferation (Fig. 2) (human melanocytes [5]; [7])	dendricity (human melanocytes [1]; TPA alone, 100 nM)	proliferation / cellular growth of S91 melanoma cells (Fig. 4) (S91 melanoma cells [3]; 100 »M)	melanin production in S91 melanoma cells (Fig. 5) (S91 melanoma cells [4]; 100 »M)
CCCCCCCC/C=C\CCCCCCCC(=O)OCC(CO)OC(C)=O (stereo not shown) [1-oleoyl-2-acetyl-glycerol]	equally effective at melanization and the induction of dendricity	did not increase the dendricity	major and significant increases in melanin content per human melanocyte as a function of TPA pretreatment in amounts meaningfully greater than that of the chosen DAG analogue alone	equally effective at melanization	4	clear dose dependent response to increased melanin content	induced increased melanization	effectively failed to induce proliferation	consistently failed to induce any substantial increases in melanin production	no meaningful effects on melanocyte proliferation or growth	neither the DAG analogue, nor the pretreatment with TPA, nor their combination has any substantial effect	neither the DAG analogue, nor the pretreatment with TPA, nor their combination has any substantial effect			
tetradecanoyl phorbol-13-acetate [TPA, reference compound]												neither the DAG analogue, nor the pretreatment with TPA, nor their combination has any substantial effect	induced extreme dendricity		
CC(C)Cn1c(=O)n(C)c(=O)c2[nH]cnc21 [IBMX, 3-isobutyl-1-methylxanthine, reference compound]														failed to produce any cellular growth	caused a major increase in melanin production

From patent EP0373195B1, “COMPOSITION FOR INCREASING MELANIN CONTENT OF MELANOCYTES IN-VIVO AND IN-VITRO AND METHODS FOR THE IN-VITRO USE THEREOF” (TRUSTEES OF BOSTON UNIVERSITY, priority 1988, dated 1989)
